Measurements as given in patent US11274124B2, “Tubulysin analogues as anticancer agents and payloads for antibody-drug conjugates and methods of treatment therewith” (William Marsh Rice University, priority 2017, dated 2022).
Read-outs that look alike come from different tables or passages of the source.

Key:
[1] = tested on: HEK 293T (human embryonic kidney cancer cell line); assay: In vitro cytotoxicity assay (CellTiter-Glo, 72 hours), HEK 293T; type: cell-based; conditions: Homo sapiens, HEK-293T, 72 h
[2] = tested on: MES SA DX (MES SA cell line with marked multi-drug resistance); assay: In vitro cytotoxicity assay (CellTiter-Glo, 72 hours), MES SA DX; conditions: Homo sapiens, MES-SA, 72 h
[3] = tested on: MES SA (uterine sarcoma cell line); assay: In vitro cytotoxicity assay (CellTiter-Glo, 72 hours), MES SA; type: cell-based; conditions: Homo sapiens, MES-SA, 72 h
[4] = tested on: MES SA, MES SA DX and HEK 293T cells; assay: In vitro cytotoxicity assay, structure-activity discussion over the cell lines tested; conditions: refers to Tables 2 and 3
[5] = read-out: HEK 293T, IC50 Value in nM
[6] = read-out: MES SA DX, IC50 Value in nM
[7] = read-out: MES SA, IC50 Value in nM

SMILES	IC50 [1, 5] [nM]	IC50 [2, 6] [nM]	IC50 [3, 7] [nM]	cytotoxicity potency (in words, structure-activity discussion) [4]	IC50 ([1]; read-out: HEK 293T, IC50) [nM]	IC50 ([2]; read-out: MES SA DX, IC50) [nM]	IC50 ([3]; read-out: MES SA, IC50) [nM]
COC(=O)[C@@H](C)C[C@H](Cc1ccccc1)NC(=O)c1csc(C(=O)C[C@H](C(C)C)N(C)C(=O)[C@@H](NC(=O)[C@H]2CCCCN2C)C(C)C)n1 [Tb63, Methyl (2S,4R)-2-methyl-4-[({2-[(3R)-4-methyl-3-{methyl[(2S)-3-methyl-2-({[(2R)-1-methylpiperidin-2-yl]carbonyl}amino)butanoyl]amino}pentanoyl]-1,3-thiazol-4-yl}carbonyl)amino]-5-phenylpentanoate]	> 1000	> 1000	> 1000	significant reduction in potency	–	–	–
COC(=O)[C@@H](C)C[C@H](Cc1ccccc1)NC(=O)c1nc([C@@H](C[C@H](C(C)C)N(C)C(=O)[C@@H](NC(=O)[C@H]2CCCCN2C)C(C)C)OC(C)=O)sc1C [Tb66, Methyl (2S,4R)-4-[({2-[(1R,3R)-1-acetoxy-4-methyl-3-{methyl[(2S)-3-methyl-2-({[(2R)-1-methyl-piperidin-2-yl]carbonyl}amino)butanoyl]amino}pentyl]-5-methyl-1,3-thiazol-4-yl}carbonyl)amino]-2-methyl-5-phenylpentanoate]	0.773	> 1000	1.03	some loss of potency	–	–	–
CC(=O)O[C@H](C[C@H](C(C)C)N(C)C(=O)[C@@H](NC(=O)[C@H]1CCCCN1C)C(C)C)c1nc(C(=O)N[C@@H](Cc2ccccc2)C[C@H](C)C(=O)O)c(C)s1 [Tb67, (2S,4R)-4-[({2-[(1R,3R)-1-Acetoxy-4-methyl-3-{methyl[(2S)-3-methyl-2-({[(2R)-1-methylpiperidin-2-yl]carbonyl}amino)butanoyl]amino}pentyl]-5-methyl-1,3-thiazol-4-yl}carbonyl)amino]-2-methyl-5-phenylpentanoic acid]	0.143	71.5	0.836	some loss of potency	0.144	71.5	0.836
Cc1sc(C(=O)C[C@H](C(C)C)N(C)C(=O)[C@@H](NC(=O)[C@H]2CCCCN2C)C(C)C)nc1C(=O)N[C@@H](Cc1ccccc1)C[C@H](C)C(=O)O [Tb68, (2S,4R)-2-Methyl-4-[({5-methyl-2-[(3R)-4-methyl-3-{methyl[(2S)-3-methyl-2-({[(2R)-1-methyl-piperidin-2-yl]carbonyl}amino)butanoyl]amino}pentanoyl]-1,3-thiazol-4-yl}carbonyl)amino]-5-phenylpentanoic acid]	> 1000	> 1000	> 1000	significant reduction in potency	–	–	–
COC(=O)[C@@H](C)C[C@H](Cc1ccccc1)NC(=O)c1nc([C@@H](C[C@H](C(C)C)N(C)C(=O)[C@@H](NC(=O)[C@H]2CCCN2C)C(C)C)OC(C)=O)sc1C [Tb70, Methyl (2S,4R)-4-[({2-[(1R,3R)-1-acetoxy-4-methyl-3-{methyl[(2S)-3-methyl-2-({[(2R)-1-methyl-pyrrolidin-2-yl]carbonyl}amino)butanoyl]amino}pentyl]-5-methyl-1,3-thiazol-4-yl}carbonyl)amino]-2-methyl-5-phenylpentanoate]	2.32	> 1000	3.11	significant loss of potency	–	–	–
CC(=O)O[C@H](C[C@H](C(C)C)N(C)C(=O)[C@@H](NC(=O)[C@H]1CCCN1C)C(C)C)c1nc(C(=O)N[C@@H](Cc2ccccc2)C[C@H](C)C(=O)O)c(C)s1 [Tb71, (2S,4R)-4-[({2-[(1R,3R)-1-Acetoxy-4-methyl-3-{methyl[(2S)-3-methyl-2-({[(2R)-1-methylpyrrolidin-2-yl]carbonyl}amino)butanoyl]amino}pentyl]-5-methyl-1,3-thiazol-4-yl}carbonyl)amino]-2-methyl-5-phenylpentanoic acid]	0.408	> 1000	1.42	significant loss of potency	–	–	–
COC(=O)[C@@H](C)C[C@H](Cc1ccccc1)NC(=O)c1nc([C@@H](C[C@H](C(C)C)N(C)C(=O)[C@@H](NC(=O)[C@H]2CCCCN2C)C(C)C)OC(C)=O)sc1C(C)C [Tb72, Methyl (2S,4R)-4-[({2-[(1R,3R)-1-acetoxy-4-methyl-3-{methyl[(2S)-3-methyl-2-({[(2R)-1-methyl-piperidin-2-yl]carbonyl}amino)butanoyl]amino}pentyl]-5-isopropyl-1,3-thiazol-4-yl}carbonyl)-amino]-2-methyl-5-phenylpentanoate]	4.02	> 70	11.7	significant loss of potency	–	–	–
CC(=O)O[C@H](C[C@H](C(C)C)N(C)C(=O)[C@@H](NC(=O)[C@H]1CCCCN1C)C(C)C)c1nc(C(=O)N[C@@H](Cc2ccccc2)C[C@H](C)C(=O)O)c(C(C)C)s1 [Tb73, (2S,4R)-4-[({2-[(1R,3R)-1-Acetoxy-4-methyl-3-{methyl[(2S)-3-methyl-2-({[(2R)-1-methylpiperidin-2-yl]carbonyl}amino)butanoyl]amino}pentyl]-5-isopropyl-1,3-thiazol-4-yl}carbonyl)amino]-2-methyl-5-phenylpentanoic acid]	0.16	44.7	1.28	significant loss of potency	0.16	44.7	1.28
CCOC(=O)[C@@H](C)C[C@H](Cc1ccccc1)NC(=O)c1csc([C@@H](C[C@H](C(C)C)N(C)C(=O)CNC(=O)[C@H]2CCCCN2C)OC(C)=O)n1 [Tb88, Ethyl (2S,4R)-4-[({2-[(1R,3R)-1-acetoxy-4-methyl-3-{methyl[({[(2R)-1-methylpiperidin-2-yl]carbonyl}amino)acetyl]amino}pentyl]-1,3-thiazol-4-yl}carbonyl)amino]-2-methyl-5-phenylpentanoate]	494	> 2500	458	no significant activity	–	–	–
CCOC(=O)[C@@H](C)C[C@H](Cc1ccccc1)NC(=O)c1csc([C@@H](C[C@H](C(C)C)N(C)C(=O)[C@H](CC)NC(=O)[C@H]2CCCCN2C)OC(C)=O)n1 [Tb93, Ethyl (2S,4R)-4-[({2-[(1R,3R)-1-acetoxy-4-methyl-3-{methyl[(2S)-2-({[(2R)-1-methylpiperidin-2-yl]-carbonyl}amino)butanoyl]amino}pentyl]-1,3-thiazol-4-yl}carbonyl)amino]-2-methyl-5-phenylpentanoate]	0.2	31.9	0.15	significant potencies	0.2	31.9	0.15
CC[C@H](NC(=O)[C@H]1CCCCN1C)C(=O)N(C)[C@H](C[C@@H](OC(C)=O)c1nc(C(=O)N[C@@H](Cc2ccccc2)C[C@H](C)C(=O)O)cs1)C(C)C [Tb94, (2S,4R)-4-[({2-[(1R,3R)-1-acetoxy-4-methyl-3-{methyl[(2S)-2-({[(2R)-1-methylpiperidin-2-yl]carbonyl}amino)butanoyl]amino}pentyl]-1,3-thiazol-4-yl}carbonyl)amino]-2-methyl-5-phenylpentanoic acid]	0.4	89.8	0.46	significant potencies	0.4	89.8	0.46
CCCC[C@H](NC(=O)[C@H]1CCCCN1C)C(=O)N(C)[C@H](C[C@@H](OC(C)=O)c1nc(C(=O)N[C@@H](Cc2ccccc2)C[C@H](C)C(=O)OCC)cs1)C(C)C [Tb95, Ethyl (2S,4R)-4-[({2-[(1R,3R)-1-acetoxy-4-methyl-3-{methyl[(2S)-2-({[(2R)-1-methylpiperidin-2-yl]-carbonyl}amino)hexanoyl]amino}pentyl]-1,3-thiazol-4-yl}carbonyl)amino]-2-methyl-5-phenylpentanoate]	0.53	> 1000	0.937	lack of or significantly lower cytotoxicities	0.53	> 1000	0.937
CCCC[C@H](NC(=O)[C@H]1CCCN1C)C(=O)N(C)[C@H](C[C@@H](OC(C)=O)c1nc(C(=O)N[C@@H](Cc2ccccc2)C[C@H](C)C(=O)OCC)cs1)C(C)C [Tb96, Ethyl (2S,4R)-4-[({2-[(1R,3R)-1-acetoxy-4-methyl-3-{methyl[(2S)-2-({[(2R)-1-methylpyrrolidin-2-yl]carbonyl}amino)hexanoyl]amino}pentyl]-1,3-thiazol-4-yl}carbonyl)amino]-2-methyl-5-phenylpentanoate]	5.26	> 1000	10.5	lack of or significantly lower cytotoxicities	–	–	–
CCOC(=O)[C@@H](C)C[C@H](Cc1ccccc1)NC(=O)c1csc([C@@H](C[C@H](C(C)C)N(C)C(=O)[C@H](CCC(C)C)NC(=O)[C@H]2CCCCN2C)OC(C)=O)n1 [Tb97, Ethyl (2S,4R)-4-[({2-[(1R,3R)-1-acetoxy-4-methyl-3-{methyl[(2S)-5-methyl-2-({[(2R)-1-methyl-piperidin-2-yl]carbonyl}amino)hexanoyl]amino}pentyl]-1,3-thiazol-4-yl}carbonyl)amino]-2-methyl-5-phenylpentanoate]	2.87	> 1000	4.65	lack of or significantly lower cytotoxicities	–	–	–
